Tests used:
[1] = Agarose gel electrophoresis for nucleic acid incorporation; type: physicochemical; conditions: 1% agarose gel, SYBR Safe, naked mRNA control
Method: The LNP compositions were analyzed to verify the presence of mRNA. An aliquot of each of the LNP compositions was loaded on to a 1% agarose gel with a size standard and naked mRNA control, subject to electrophoresis and the presence of mRNA was detected by exposure of ultraviolet light to excite the fluorophore (SYBR Safe) which is complexed with nucleic acid. The free mRNA migrated in the gel in accordance with its molecular weight whereas all of the mRNA-containing LNP compositions remained at the interface of the agarose gel and the well with little to no detectable free mRNA indicating the LNP compositions comprising COMPOUND 1 of Example 1 were capable of incorporating mRNA.

HEK293T cells [2] = assay: In vitro LNP delivery of eGFP mRNA to adherent cells; type: cell-based; conditions: 0.125 μg eGFP mRNA per well, 24 hr, flow cytometry, LNP 41.44/45.85/10.0/2.7, lipid:RNA 40:1
Method: HEK293T cells were seeded in 96 well plates and grown to 70% confluence in DMEM+10% FBS] under a 5% CO2 atmosphere at 37° C. A 0.125 μg amount of 5′-CleanCap-eGFP mRNA (TriLink Biotech) formulated with LNP compositions comprising COMPOUNDS 1-4 as prepared in Example 3 at the following percentages in Table 10 was added to each well.
After incubating for 24 hr, cells were imaged for GFP expression with a Leica fluorescence microscope and then detached from 96 well plate to quantitate expression by flow cytometry.

Resting T-cells [3] = assay: LNP delivery of eGFP mRNA to resting T-cells; type: cell-based; conditions: eGFP mRNA LNPs 0.4144:0.4585:0.1:0.027, lipid:nucleic acid 40:1, 0.5 ug mRNA per well, 24 hrs
Method: In one experiment, LNPs of the present disclosure comprising one of COMPOUNDS 1-4, DOPE, Cholesterol and DMG-PEG2000 at a molar ratio of 0.4144:0.4585:0.1:0.027 and further comprising Cleancap mRNA encoding eGFP were formed on a NanoAssemblr® (Precision Nanosystems). […] Resting T-cells were treated with varying amounts of the four LNP composition and at 24 hrs, the cells were analyzed to determine the percentage of cells that were viable and that expressed […]. The results of the analysis are shown in Table 12 for a dose of 0.5 ug mRNA per well.

[4] = Average diameter of lipoplex nanoparticles comprising eGFP mRNA (DLS or NTA); type: physicochemical; conditions: lipoplex nanoparticles comprising eGFP mRNA and COMPOUND 1, both methods
Method: Lipoplex nanoparticles were formulated using solvent injection method. In brief, a multivalent cationic bolaform amphiphilic lipid (4.0 mg) was dissolved in dimethyl sulfoxide (1 mL) to obtain 4 mg/mL solution. The solution was heated for 15 min at 40° C. to dissolve the lipid. DNA or mRNA (0.040 mg) was diluted with 50 mM Sodium acetate buffer (2 mL, pH 5.5) to obtained 0.02 mg/mL solution. Bolamphiphile lipid solution (0.4 mg, 100 p1) was injected in DNA or mRNA solution (0.04 mg, 2 mL) under constant sonication. The mass ratio of […] was kept constant to 10 for all the bolamphiphile formulation. The sonication was continued for 5 min. The solution was dialyzed (MWCO 30 kDa) for 4-6 hours in PBS (1×, pH 7.4) at room temperature. Sample was concentrated using Amicon centrifuge tube (30 kDa) to get the desired concentration for subsequent in vivo or in vitro use.
Lipoplex nanoparticles were prepared comprising mRNA encoding eGFP using COMPOUND 1 according to the method above and the average diameter of the resulting nanoparticles was determined by DLS or NTA. Both methods yielded average diameters of about 120 nm and the presence of RNA in the nanoparticle was confirmed by gel electrophoresis as described in Example 3.

[5] = Physical characterisation of mRNA-containing LNPs (DLS, NTA, zeta potential); type: physicochemical; conditions: Fluc mRNA LNPs: compound/DOPE/Cholesterol/DMG-PEG2000 41.44/45.85/10/2.7, lipid:RNA 40:1 (w/w)
Method: A series of ten multi-component LNP compositions of the present disclosure comprising exemplary compounds of Formula (I) was prepared by combining various percentages of an exemplary compound of Formula (I), the phospholipid DOPE, the structural lipid cholesterol (Chol) and 1,2-dimyristoyl-sn-glycerol methoxypolyethylene glycol (DMG-PEG2000; Avanti Polar Lipids, Alabaster, Alabama, USA).
Individual 25 mg/ml stock solutions were prepared by solubilizing the lipids in 200-proof HPLC-grade ethanol and stock solutions were stored at −80° C. until formulated. At the time of formulation, the lipid stock solutions were briefly allowed to equilibrate to room temp and then placed on a hot plate maintained at a temperature range of 50-55° C.
A 1 mg/mi solution of the desired mRNA to be incorporated into the LNPs was added to 150 mM sodium acetate buffer (pH 5.2) to form a stock solution and kept on ice. The lipid phase was mixed with the aqueous m RNA phase inside a microfluidic chip using a NanoAssemblr® instrument (Precision Nanosystems, Vancouver, BC, Canada) according to the manufacturer's instructions to form LNP compositions comprising encapsulated mRNAs.
The resultant mRNA LNP compositions were then transferred to a Repligen Float-A-Lyzer dialysis device—having a molecular weight cut off (MWCO) of 8-10 kDa (Spectrum Chemical Mfg. Corp, CA, USA) and processed by dialysis against phosphate buffered saline (PBS) (dialysate:dialysis buffer volume at least 1:200 v/v), pH 7.4 overnight at 4° C. (or alternatively room temperature for at least 4 hours), to remove the 25% ethanol and achieve a complete buffer exchange. In some experiments the LNPs were further concentrated by in an Amicon® Ultra-4 centrifugal filter unit, MWCO-30 kDa (Millipore Sigma, USA) spun at ˜4100×g in an ultracentrifuge. The mRNA LNPs were then stored at 4° C. until further use.
A series of multicomponent LNP compositions comprising one of COMPOUNDS 1-8 described in Example 1 and the mRNA encoding flue was prepared according to Example 2 and the physical characteristics of the resulting LNPs were analyzed.
In a separate experiment, LNP compositions of the present disclosure comprising mRNA encoding firefly luciferase (hereafter “Fluc”; TriLink) and COMPOUNDS 1-8 were prepared as described in Example 2 by combining one of COMPOUNDS 1-8, the phospholipid DOPE, the structural lipid cholesterol (Chol) and 1,2-dimyristoyl-sn-glycerol methoxypolyethylene glycol (DMG-PEG2000) in the percentages presented in Table 8: […]

Resting T-cells [6] = assay: LNP delivery of nano-pB-EF1a-GFP DNA to resting T-cells; type: cell-based; conditions: nano-pB-EF1a-GFP DNA LNPs 0.38:0.5:0.1:0.02, lipid:nucleic acid 45:1, 24 hr
Source text: The experiments described in this example used CD4/CD8 positive T-cells isolated from a leukapheresis product from a healthy donor.

[7] = Physical characterisation of DNA-containing LNPs (DLS, NTA, zeta potential); type: physicochemical; conditions: nano-pB-EF1a-GFP DNA LNPs: compound/DOPE/Cholesterol/DMG-PEG2000 38.0/50.0/10.0/2.0, lipid:DNA 45:1 (w/w)
Method: LNP compositions of the present disclosure comprising DNA, a nanoplasmid encoding a piggyBac transposon, wherein the piggyBac transposon comprised GFP under control of the EF1a promoter (herein referred to as the nano-pB-EF1a-GFP), and one of COMPOUNDS 1-8 were prepared as described in Example 3 by combining one of COMPOUNDS 1-8, the phospholipid DOPE, the structural lipid cholesterol (Chol) and 1,2-dimyristoyl-sn-glycerol methoxypolyethylene glycol (DMG-PEG2000) in the following percentages in Table 20: […]

HEK293T cells [8] = assay: In vitro lipoplex nanoparticle delivery of eGFP mRNA to adherent cells; type: cell-based
Method: HEK293T cells were seeded in 96 well plates and grown to 70% confluence in [DMEM+10% FBS under a 5% CO2 atmosphere at 37° C. Lipoplex nanoparticles comprising COMPOUND 1 and 0.007, 0.03, 0.125, and 0.50 μg mRNA encoding eGFP were added to the cells. Following incubation with the lipoplex nanoparticles, cells were assessed for GFP expression by epifluorescence microscopy and flow cytometry.

For `CC(C)C(CCC(C)C(CCC1CCC(C(=O)NCCCCCCNC(=O)C2CCC(CCC(SCCN(C)C)C(C)CCC(SCCN(C)C)C(C)C)C(SCCN(C)C)C2)CC1SCCN(C)C)SCCN(C)C)SCCN(C)C` (stereo not shown) [Compound 1], the “incorporation of mRNA into the nanoparticle compositions by gel electrophoresis” value [1] was “confirmed”, the “% Viable GFP+” value (HEK293T cells [2]) was 23.5% and the “% Viable GFP+” value (Resting T-cells [3]) was 9.5%. The “average diameter of lipoplex nanoparticles” value [4] was “about 120 nm”, the “Diameter (DLS; nm)” value [5] was 155.1 nm and the “Diameter (NTA; nm)” value [5] was 126.5 nm. The PDI [5] was 0.174, the “Total Particles/ml” value [5] was 1.66E+11 Particles/ml and the “Zeta Potential (mV)” value [5] was 1.41 mV. The “% Viable GFP+” value (Resting T-cells [6]) was 35.2%, the “Diameter (DLS; nm)” value [7] was 123.5 nm and the “Diameter (NTA; nm)” value [7] was 96.9 nm. The PDI [7] was 0.17, the “Total Particles/ml” value [7] was 5.76E+11 Particles/ml and the “Zeta Potential (mV)” value [7] was 0.67 mV. For the same compound, the “% GFP” value (HEK293T cells [8]; lipoplex nanoparticles comprising COMPOUND 1, 0.007 μg mRNA) was 0.99%, the “% GFP” value (HEK293T cells [8]; lipoplex nanoparticles comprising COMPOUND 1, 0.03 μg mRNA) was 7.37% and the “% GFP” value (HEK293T cells [8]; lipoplex nanoparticles comprising COMPOUND 1, 0.125 μg mRNA) was 30.1%. The “% GFP” value (HEK293T cells [8]; lipoplex nanoparticles comprising COMPOUND 1, 0.50 μg mRNA) was 56.1%.
